Source: US20200163342A1, “MIXTURES COMPRISING A BIOPESTICIDE AND A NITRIFICATION INHIBITOR” (BASF SE, priority 2017, published 2020)
Bridge positions count the residues as written; N and C are the ends. Square brackets hold non-standard residues; d marks the D form. Peptide text beside a SMILES is read from it. * marks the point of attachment. ξ: configuration not given here. Pentadecanoyl(3ξ-OH,15-Gua) = N=C(N)NCCCCCCCCCCCCC(O)CC(=O)*; d(aThr) = C[C@@H](O)[C@@H](N)C(=O)O; Thr(3ξ) = CC(O)[C@H](N)C(=O)O; ξY = NC(Cc1ccc(O)cc1)C(=O)O

Key:
[1] = system: Fusarium moniliforme, F. oxysporum, F. roseum, Giberella fujkuroi, Helminthosporium sesamum and Penicillium expansum; conditions: J. Antibiotics 40(11), 1506-1514, 1987; cited from earlier work
N2O emissions from soils = assay: Greenhouse detection of nitrous oxide losses (N2O emission), soybean pots; format: in vivo, Glycine max 'Sultana'; conditions: DMPSA 1% of NH4-N where present
Experimental: (§1) Plants were generally grown under standard green house conditions (20° C. and 60% humidity) using standard greenhouse soil (mixture of peat, loam and sand). Therefore, 0.4 g of ryegrass seeds (Lolium perennes ‘Chagall’), 1 soybean seed (Glycine max ‘Sultana’) or 1 grape vine live stack (Vitis vinifer ssp. ‘Sativa’) were grown per pot (8.4 cm for ryegrass, soybean; 13 cm for grape vine) in a completely randomized set-up. Following a growth period of ten days (ryegrass), 14 days (soybean) or approx. 21 days, until the main shoot reached a length of 20 cm (grape vine), plants were designated for experimental usage.
On application day (DATO), each pot (with/without plants) was set onto a plant saucer designed with an inner compartment for the pot and an outer ring that is filled with water. At time 0, water holding capacity of the soil was set to 60-70% prior to application with/without fertilizer and active ingredient. Subsequently, a gas sampling chamber was placed over the plant saucer such that the rim fit into the ring filled with water to create a gas-tight chamber and 25 cc air from the chamber were drawn into a syringe and immediately emptied in to a Vacutainer (Labco, 12 ml volume). This equals the Time 0 measurement for each pot. The same procedure was performed with all pots in the experiment. After two hour incubation time, again 25 cc air samples were taken from the gas chambers and emptied into Vacutainers as described above. Plants were then returned to their positions in the climate chamber. The procedure was repeated at precisely the same time of day for up to 19 days.
Samples were analyzed in a Shimadzu 2014 GC equipped with an ECD system.
(§2) In Table N1, the weight ratio between DMPSA and Histick Super is 3.65:1, the weight ratio between DMPSA and Hicoat is 10.43:1.

[2] = system: soybean (Glycine max 'Sultana'); assay: Greenhouse detection of plant biomass (fresh weight), soybean; format: in vivo; conditions: 17 days after start, with AS liquid, DMPSA 1% of NH4-N where present
Experimental: as §1
Detection of ryegrass and soybean biomass (fresh weight) was determined gravitometricallly. Therefore, plants were cut using a hand held lawn cutter (ryegrass) or garden shears (soybean) 1 cm above the soil. Given ryegrass data represent the mean value of respective replicates summed up for 3 cuttings. For experiments using ryegrass, evaluations were conducted 5, 12 and 17 days after start of the experiment. For experiments using soybean, biomass evaluation was conducted 17 days after experimental start.
as §2

[3] = system: grape vine (Vitis vinifer ssp. 'Sativa'); assay: Greenhouse shoot elongation, grape vine; format: in vivo; conditions: grape vine main shoot elongation, 17 days after start; DMPSA 1% of NH4-N, VitoVin 12481 g/ha
Experimental: as §1
For experiments using grape vine, elongation of the main shoot was measured metrically 17 days after experimental start.
In Table N2, the weight ratio between DMPSA and VitoVin is 1:5.6.

[4] = system: Fusarium oxysporum, Aspergillus niger, Aspergillus oryzae, and Penicillum thomii; conditions: J. Antibiotics 49(2), 129-135, 1996; 50(3), 220-228, 1997; cited from earlier work
[5] = system: clinically relevant fungi and gram-positive bacteria such a Staphylococcus aureus; conditions: variety of clinically relevant fungi and gram-positive bacteria; ChemMedChem 7, 871-882, 2012; cited from earlier work
cultured parsley cells = conditions: WO2006/016558; EP1 788 074 A1; cited from earlier work
Fusarium oxysporum = conditions: WO2006/016558; EP1 788 074 A1; cited from earlier work

fusaricidin LI-F08
antifungal activity against various plant pathogenic fungi [1]: certain antifungal activity

fusaricidin LI-F07
antifungal activity against various plant pathogenic fungi [1]: certain antifungal activity

fusaricidin LI-F05
antifungal activity against various plant pathogenic fungi [1]: certain antifungal activity

2-(3,4-dimethyl-1H-pyrazol-1-yl)succinic acid (DMPSA1) and/or 2-(4,5-dimethyl-1H-pyrazol-1-yl)succinic acid (DMPSA2)
N2O emission ppb (N2O emissions from soils; with AS liquid (ammonium sulfate, 219000 g/ha NH4-N)): 38 ppb
N2O emission ppb net emission (N2O emissions from soils; with AS liquid): 38 ppb
% inhibition (N2O emission) (N2O emissions from soils; with AS liquid, relative to soybean untreated + AS liquid): 19%
Biomass increase [% of fertilized control] [2]: 83 % of fertilized control
net Biomass increase [2]: -2.47 g
relative Growth increase [% of control] [3]: 104 % of control

CC1OC(=O)[C@@H](C)NC(=O)[C@@H](CC(N)=O)NC(=O)[C@@H]([C@H](C)O)NC(=O)C(Cc2ccc(O)cc2)NC(=O)[C@@H](C(C)C)NC(=O)[C@H]1NC(=O)CC(O)CCCCCCCCCCCCN=C(N)N (stereo partly drawn) [fusaricidin C] ({Pentadecanoyl(3ξ-OH,15-Gua)}-[Thr(3ξ)][dV][ξY][dT][dN][dA]; ester 1-C)
inhibition of plant pathogenic fungi [4]: inhibit plant pathogenic fungi

CC(C)[C@@H]1NC(=O)[C@@H](C(C)C)NC(=O)[C@@H](NC(=O)CC(O)CCCCCCCCCCCCN=C(N)N)[C@@H](C)OC(=O)[C@@H](C)NC(=O)[C@@H](CC(N)=O)NC(=O)[C@@H]([C@@H](C)O)NC1=O (stereo partly drawn) [fusaricidin A] ({Pentadecanoyl(3ξ-OH,15-Gua)}-T[dV]V[d(aThr)][dN][dA]; ester 1-C)
MIC value range [5]: 0.78 to 3.12 µg/mL
inhibition of plant pathogenic fungi [4]: inhibit plant pathogenic fungi
induction of resistance reactions in cultured parsley cells (cultured parsley cells): induce resistance reactions
inhibition of growth of Fusarium oxysporum (Fusarium oxysporum): inhibit growth

CC1OC(=O)[C@@H](C)NC(=O)[C@@H](CCC(N)=O)NC(=O)[C@@H]([C@H](C)O)NC(=O)C(Cc2ccc(O)cc2)NC(=O)[C@@H](C(C)C)NC(=O)[C@H]1NC(=O)CC(O)CCCCCCCCCCCCN=C(N)N (stereo partly drawn) [fusaricidin D] ({Pentadecanoyl(3ξ-OH,15-Gua)}-[Thr(3ξ)][dV][ξY][dT][dQ][dA]; ester 1-C)
inhibition of plant pathogenic fungi [4]: inhibit plant pathogenic fungi

CC(C)[C@@H]1NC(=O)[C@@H](C(C)C)NC(=O)[C@@H](NC(=O)CC(O)CCCCCCCCCCCCN=C(N)N)C(C)OC(=O)[C@@H](C)NC(=O)[C@@H](CCC(N)=O)NC(=O)[C@@H]([C@H](C)O)NC1=O (stereo in doubt) [fusaricidin B]
inhibition of plant pathogenic fungi [4]: inhibit plant pathogenic fungi
induction of resistance reactions in cultured parsley cells (cultured parsley cells): induce resistance reactions
inhibition of growth of Fusarium oxysporum (Fusarium oxysporum): inhibit growth
